# Test results as given in patent US20250108135A1, “TERAGNOSTIC METHOD FOR CANCER PATIENTS” (priority 2022, published 2025).
# How the values were obtained:
# [1] = system: Human GBM cell lines (LI) PARI, ADF and T98G; conditions: time and dose dependent; cited from earlier work
# [2] = system: U87MG, PC-3, CAMA1, C8161, HT-29, A549 cancer cell lines; assay: 64CuCl2 tumor cell uptake (internalization) at different radioconcentrations; format: cell-based; conditions: 4 h after treatment; same dose of radioactivity; higher radioconcentrations (2,775 and 1,850 MBq/mL) compared to the lowest (925 MBq/mL); all the cell lines
# Procedure: (§1) The capability resulted improved at a radioconcentration higher than 925 MBq/mL compared to lower concentrations. This is the first time that the impact of the drug radioconcentration has been correlated to the cell-killing effect for the translation to humans. The inventor performed internalization and survival studies on different cancer cell lines (U87MG [glioblastoma], PC-3[prostate cancer], CAMA1 [breast cancer], C8161[melanoma], HT-29[colorectal cancer]), A549 [lung cancer] applying the same amount (dose) of radioactivity (eg. 10 MBq), but at different radioconcentrations, e.g. 2,775 MBq/mL vs. 1,850 MBq/mL, vs. 925MBq/mL.
# (§2) This effect of the radioconcentration could have a great impact on patients for the optimization of treatment. In fact, in consideration of the mechanism through which ^64Cu reaches the tumor cell, the different radioconcentrations, that is to say “the number of nuclear disintegrations per unit time in a given amount of the preparation”, can influence the biodistribution in vivo. […]
# FIG. 1—Impact of different radioconcentrations on tumor cell uptake ^64CuCl2 cell uptake in different tumor cell lines U87MG, PC-3, CAMA1, C8161, HT-29. Cell uptake was evaluated treating cells at the same dosage (15 MBq/dish 100 mm), but at three different radioconcentrations C1=925 MBq/mL, C2=1,850 MBq/mL, C3=2,775 MBq/mL. Values are expressed as mean ±SEM.
# B16F10 or A375M tumors = conditions: vs control group, cited from earlier work
# [3] = Biodistribution, pharmacokinetics, dosimetry and safety in glioblastoma patients; format: in vivo, human
# Procedure: Six glioblastoma patients were evaluated for safety profile and the study of biodistribution was conducted including evaluation of PET/CT scans after first daily dose administration of radiopharmaceutical composition having a radioconcentration of 2,775 MBq/mL (day 0), at different time points 1 h, 4 h, 24 h, 48 h after injection and pharmacokinetic (PK) radioactivity on blood samples at different time points of administration.
# U87MG = assay: Cell survival (cell-killing effect) at different radioconcentrations; format: cell-based
# Procedure: as §1, §2
# Survival curve of U87MG treated with the same dosage range but at three different concentrations C1=925 MBq/mL, C2=1,850 MBq/mL, C3=2,775 MBq/mL. Value are expressed as mean ±SEM. […]
# [4] = system: PCa spheroids (derived from 22RV1, DU145, and LNCaP cells); conditions: in vitro; cited from earlier work
# U-87 GM cells = conditions: nude mice implanted with U-87 GM cells; cited from earlier work
# glioblastoma = assay: Response to 64CuCl2 treatment in glioblastoma patients (MRI, RANO criteria); format: in vivo, human
# Procedure: A glioblastoma patient of 70 kg that belongs to the class of recurrent glioblastoma. The patient underwent surgery, radiotherapy and chemotherapy and after that experienced recurrence. Standard treatment are not effective in this setting therefore the patient received a diagnostic dose of ^64CuCl2 equal to 925 MBq. After 1 h from administration a PET/CT scan is performed. The patient resulted positive for copper lesion at the diagnostic dose and started treatment
# The treatment with ^64CuCl2 (2,775 MBq/mL) for intravenous use by injection followed this scheme and the patient received once a week: • 1st dose=4,810 MBq, 2nd dose=4,810 MBq, 3rd dose=4,810 MBq, 4th dose=4,810 MBq, 5th dose=4,810 MBq, 6th dose=4,810 MBq, 7th dose=4,810 MBq
# The patient (71 Kg) underwent surgery, radiotherapy and chemotherapy and after that experienced recurrence. Standard treatments are not effective in this setting therefore the patient received a diagnostic dose of ^64CuCl2 equal to 925 MBq. After 1 h from administration a PET/CT scan is performed. The patient resulted positive for copper lesion at the diagnostic dose and started treatment (^64CuCl2 277 MBq/mL for intravenous by infusion).
# The treatment followed this scheme and the patient received once a week: • 1st dose=1,850 MBq, 2nd dose=2,460 MBq, 3rd dose=2,922 MBq, 4th dose=3,292 MBq, 5th dose=3,606 MBq, 6th dose=3,865 MBq, 7th dose=4,068 MBq.
# The phase I clinical trial on glioblastoma is the first study evaluating preliminary efficacy of ^64CuCl2 2,775 MBq/mL as therapeutic agent. This determination was performed on 10 patients, at the end of the 7th therapy dose, at 90th day (after 3 months of the last treatment) and whenever possible at 180th day to obtain a wider evaluation of the disease status. Data cut-off was performed after 5 patients. The response to treatment, in term of anti-tumor activity of ^64CuCl2, was measured by MRI, assessed according to the RANO criteria (Response Assessment in Neuro-Oncology, see Wen PY et al.) and defined as complete response (disappearance of tumor) partial response (reduction) and stable disease (non-progression of GBM). Among these patients 4 resulted responders and 1 non-responder. […] Tumor volume reduction ≥50% was also shown in two cases after three months from the last treatment, and in one patient after 6 months from the last treatment.
# prostate cancer = assay: Response to 64CuCl2 treatment in prostate cancer patients (PET/CT); format: in vivo, human
# Procedure: The patient at initial diagnosis had local tumor, and after surgery (radical prostatectomy) they underwent radiotherapy and chemotherapy. However, they experienced local recurrence plus a bone metastatic lesion. After receiving all standard treatments, the patient received a diagnostic dose of ^64CuCl2 equal to 925 MBq. After 1 h from administration a PET/CT scan is performed. The patient resulted positive for copper lesion at the diagnostic dose and started treatment. […] The PET/CT acquired the same day of the 4th therapeutic administration and the PET/CT acquired before treatment beginning were analyzed by two independent observers (a third observer expressed another evaluation only in case of discrepancies).
# [5] = Effective dose of the diagnostic 64CuCl2 administration; format: in vivo, human; conditions: diagnostic dose 370-925 MBq
# From the text: Patients with tumor received ^64CuCl2 at a dose between 370-925 MBq to ensure appropriate image quality. The mean effective dose for ^64CuCl2 calculated is 20 mSv per exam, which is aligned with the ones from the conventional PET imaging.
# [6] = system: 5 human neoplastic cell lines (ovarian cancer, head and neck, neuroendocrine lung carcinoma, colorectal cancer, glioblastoma); conditions: microPET after administration of 64CuCl2; cited from earlier work
# [7] = six glioblastoma patients, 2,775 MBq/mL
# [8] = phase I glioblastoma, 2,775 MBq/mL, data cut-off after 5 patients, 7 treatments
smiles,measurement,setting,value
"[Cl][Cu][Cl] [^64CuCl2, Copper Chloride]",modulation of cell viability,[1],dose dependent
same,cell uptake,[2],significantly greater
same,tumor growth,"B16F10 or A375M tumors; B16F10 and A375M models, one dose about 74 MBq",much slower than that of the control group
same,survival,B16F10 or A375M tumors; mice bearing B16F10 or A375M tumors,significantly improved survival
same,treatment related toxicities associated to liver/kidney and red marrow distribution,[3]; glioblastoma patients,No treatment related toxicities were registered
same,biodistribution (organ uptake),[3]; [7],significant uptake in the liver (as expected) followed by kidney and L2-L4 regions
same,"effective dose, median",[3]; [7],26.08 mSv
same,64Cu uptake over time (pharmacokinetic profile),"[3]; six glioblastoma patients, 2,775 MBq/mL, PET/CT 1 h, 4 h, 24 h, 48 h after injection",increases up to 4 h post-injection and decreased thereafter
same,cell-killing effect,"U87MG; 24 h after treatment, 2,775 MBq/mL, U87MG survival curve",increased cell-killing effect
same,improved cell killing-effect compared to C1,"U87MG; C3=2,775 MBq/mL vs C1=925 MBq/mL at D4=1.7 MBq and D5=3.4 MBq",about 30%
same,growth of spheroids,[4],reduce their growth
same,"tumor volume, in some cases",U-87 GM cells,complete regression
same,patients with tumor volume reduction ≥50%,glioblastoma; 6 months from the last treatment,one
same,patients with reduction of tumor volume ≥50% compared to baseline MRI,glioblastoma; day 42 evaluation,one
same,patients with stable disease,"glioblastoma; day 42 evaluation, responder patients",3 patients
same,patients with stable disease,glioblastoma; day 90,2 patients
same,number of non-responders,glioblastoma; [8],1
same,number of responders,glioblastoma; [8],4
same,response to the treatment,"glioblastoma; recurrent glioblastoma patient (71 Kg), 277 MBq/mL i.v. infusion, 7 increasing doses 1,850-4,068 MBq once a week",responder
same,cases with tumor volume reduction ≥50%,glioblastoma; three months from the last treatment,two
same,patients with stable disease,glioblastoma; up to six months after treatment,one
same,volume of lesions (PET/CT),"prostate cancer; five prostate cancer patients, after 4 administrations, 2,775 MBq/mL solution for injection",a reduction or a non-progression
same,"tumor lesions on the bone, PET/CT before and after treatment","prostate cancer; metastatic prostate cancer patient, 2,775 MBq/mL injection, 7 doses of 4,810 MBq once a week",reduction of the tumor lesions on the bone
same,mean effective dose per exam,[5],20 mSv
same,uptake of 64Cu2+ by neoplastic tissues,[6],significant uptake
